Measured values: patent US9737505B2, “Prodrug of 1,1′-(1,6-dioxo-1,6-hexanediyl)bis-D-proline” (GlaxoSmithKline Intellectual Property Development Limited, priority 2014, dated 2017)
Read-outs that look alike come from different tables or passages of the source.

Key:
[1] = Physical stability (hydrolysis) in phosphate buffer at various pHs; assay type: physicochemical; conditions: acidic environment (pH less than 7.0), room temperature
Experimental: The assay was designed for determining physical stability of compound in buffer at various pHs. Compound of Formula (I) was dissolved in DMSO at 1 mg/ml. Phosphate buffer (PBS) was prepared by mixing K2HPO4 50 mM and KH2PO4 50 mM solutions to obtain 4 buffers at pH 6.0, 7.0, 7.5, 8.0.
Stability studies were conducted at room temperature, and were started by the addition of 8 μl of DMSO solution to 792 μl of PBS 50 mM at pH 6.0, 7.0, 7.5 or 8.0 (1% DMSO). 75 μl of mixture was taken at 0, 1, 2, 4 and 24 h and 225 μl acetonitrile containing internal standard was added.
2 μl of samples were injected into the liquid chromatography system and eluted with a Ascentis C18 column (50×2.1 mm id, 2.7 μm) and with 0.1% formic acid in water (A) and 0.1% formic acid in acetonitrile (B), using the following elution 2 min gradient: 5 to 95% B over 1.2 min, 95% B over 0.6 min and 0.1 min for re-equilibrate column, at 0.5 mL/min at 50° C.
Samples were analysed by Mass Spectrometry with an electrospray source and in positive mode and with following mass transitions: • Compound of Formula (I): 657 to 384 • Monoester of CPHPC: 499 to 226 • CPHPC: 341 to 226

[2] = target: T1, CYP2D6 (Homo sapiens, UniProt P10635); assay: Cytochrome p450 inhibition assay (bactosomes, fluorogenic substrate MMC); assay type: biochemical; conditions: recombinant human CYP (Cypex bactosomes)
T1 construct: purchased Cypex; host or cells: bactosomes (bacterial membranes)
Experimental: (§1) The assay was designed to evaluate inhibition on cytochrome P450 (CYP) 3A4, 2C9, 2C19, 1A2 and 2D6 enzymes from bactosomes source using fluorogenic substrates. Compound (compound of Formula (I) or Comparator Compound) was dissolved in methanol at 1.65 mM. Daughter solutions were prepared in methanol at 660, 264, 106, 42, 17, 6.8, 2.7, 1.1 and 0.43 μM. NADPH cofactor was prepared with Glucose-6-phosphate (7.8 mg), Glucose-6-phosphate dehydrogenase (6 units), NADP (1.7 mg) per 1 mL in NaHCO3 2%. Substrate preparation was as follows: • 7-Methoxy-4-triFluoromethyl Coumarin-3-Acetic acid ethyl ester (FCA): 12.5 mM in acetonitrile • EthoxyResorufin (ER): 0.05 mM in acetonitrile • 4-MethylaminoMethyl-7-Methoxy Coumarin (MMC): 2.5 mM in methanol • 3-Butyryl-7Methoxy Coumarin (BMC): 2.5 mM in DMSO • 7-BenzyloxyQuinoline (7BQ): 2.5 mM in acetonitrile • DiEthoxyFluorescein (DEF): 0.1 mM in acetonitrile Bactosomes (Cypex source) at the concentration of 10 mg of protein per ml were diluted in phosphate buffer 50 mM pH7.4: • 0.33 ml of bactosomes CYP2C9 with 23.8 ml of buffer and 0.11 ml of FCA • 0.33 ml of bactosomes CYP1A2 with 23.6 ml of buffer and 0.275 ml of ER • 0.33 ml of bactosomes CYP2D6 with 23.8 ml of buffer and 0.11 ml of MMC • 0.33 ml of bactosomes CYP2C19 with 23.8 ml of buffer and 0.11 ml of BMC • 0.33 ml of bactosomes CYP3[…] with 23.6 ml of buffer and 0.275 ml of 7BQ • 0.33 ml of bactosomes CYP3[…] with 23.6 ml of buffer and 0.275 ml of DEF Pre-Incubation consisted in mixing 5 μl of compound solution with 220 μl diluted bactosomes and warming it at 37° C. for 10 min. Incubation was started with the addition of 25 μl of NADPH. […]

[3] = Intestinal microsomal stability; assay type: in vitro ADME; conditions: 37° C., even after 60 minutes
Experimental: (§2) The assay was designed for determining stability of compound in microsomal matrix. Compound (Compound of Formula (I)) was dissolved in DMSO at 1 mg/ml. Daughter solution was prepared in methanol/water (50/50) at 30.3 ng/ml. Microsomes (from Xenotech) were diluted at 0.625 mg proteins per ml in phosphate buffer 50 mM pH 7.4.
Pre-Incubation consisted of warming microsomal solution 395 μl with 100 μl NaHCO3 (2%) at 37° C. for 7 min. Incubation was started with the addition of 5 μl of daughter solution. […]
(§3) After 10 min centrifugation at 4000 rpm, 2 μl of samples were injected into the liquid chromatography system and eluted on a Ascentis C18 column (50×2.1 mm id, 2.7 μm) with 0.1% formic acid in water (A) and 0.1% formic acid in acetonitrile (B), using the following 2 minute elution gradient: 5 to 95% B over 1.2 min, 95% B over 0.6 min and 0.1 min for re-equilibrate column, at 0.5 mL/min at 50° C.
Samples were analysed by Mass Spectrometry with an electrospray source, in positive mode and with following mass transitions: • Compound of Formula (I): 657 to 384 • Monoester of CPHPC: 499 to 226 • CPHPC: 341 to 226
Controls were made to calculate percentage of disappearance of parent but also appearance of suspected metabolite, i.e. monoester and diacidic form.

[4] = target: T2, CYP2C9 (Homo sapiens, UniProt P11712); assay: Cytochrome p450 inhibition assay (bactosomes, fluorogenic substrate FCA); assay type: biochemical; conditions: recombinant human CYP (Cypex bactosomes)
T2 construct: purchased Cypex; host or cells: bactosomes (bacterial membranes)
Experimental: as §1

[5] = Liver microsomal stability; assay type: in vitro ADME
Experimental: as §2
Pre-Incubation consisted of warming microsomal solution 395 μl with 100 μl NaHCO3 (2%) at 37° C. for 7 min. Incubation was started with the addition of 5 μl of daughter solution. 50 μl aliquots of mixture were taken at 0, 3, 6, 12 and 30 min and quenched with 150 μl acetonitrile containing internal standard.
as §3
Samples were analysed by Mass Spectrometry with an electrospray source, in positive mode and with following mass transitions: • Compound of Formula (I): 657 to 384 • Monoester of CPHPC: 499 to 226 • CPHPC: 341 to 226 […]
In vitro liver microsomal activity of was assessed using the protocol detailed above (Intestine and Liver Microsomal Assay protocol).

[6] = target: T3, CYP3A4 (Homo sapiens, UniProt P08684); assay: Cytochrome p450 inhibition assay (bactosomes, fluorogenic substrates 7BQ and DEF); assay type: biochemical; conditions: recombinant human CYP (Cypex bactosomes)
T3 construct: purchased Cypex; host or cells: bactosomes (bacterial membranes)
Experimental: The assay was designed to evaluate inhibition on cytochrome P450 (CYP) 3A4, 2C9, 2C19, 1A2 and 2D6 enzymes from bactosomes source using fluorogenic substrates. Compound (compound of Formula (I) or Comparator Compound) was dissolved in methanol at 1.65 mM. Daughter solutions were prepared in methanol at 660, 264, 106, 42, 17, 6.8, 2.7, 1.1 and 0.43 μM. NADPH cofactor was prepared with Glucose-6-phosphate (7.8 mg), Glucose-6-phosphate dehydrogenase (6 units), NADP (1.7 mg) per 1 mL in NaHCO3 2%. Substrate preparation was as follows: • 7-Methoxy-4-triFluoromethyl Coumarin-3-Acetic acid ethyl ester (FCA): 12.5 mM in acetonitrile • EthoxyResorufin (ER): 0.05 mM in acetonitrile • 4-MethylaminoMethyl-7-Methoxy Coumarin (MMC): 2.5 mM in methanol • 3-Butyryl-7Methoxy Coumarin (BMC): 2.5 mM in DMSO • 7-BenzyloxyQuinoline (7BQ): 2.5 mM in acetonitrile • DiEthoxyFluorescein (DEF): 0.1 mM in acetonitrile Bactosomes (Cypex source) at the concentration of 10 mg of protein per ml were diluted in phosphate buffer 50 mM pH7.4: • 0.33 ml of bactosomes CYP2C9 with 23.8 ml of buffer and 0.11 ml of FCA • 0.33 ml of bactosomes CYP1A2 with 23.6 ml of buffer and 0.275 ml of ER • 0.33 ml of bactosomes CYP2D6 with 23.8 ml of buffer and 0.11 ml of MMC • 0.33 ml of bactosomes CYP2C19 with 23.8 ml of buffer and 0.11 ml of BMC • 0.33 ml of bactosomes CYP3[…] with 23.6 ml of buffer and 0.275 ml of 7BQ • 0.33 ml of bactosomes CYP3[…] with 23.6 ml of buffer and 0.275 ml of DEF Pre-Incubation consisted in mixing 5 μl of compound solution with 220 μl diluted bactosomes and warming it at 37° C. for 10 min. Incubation was started with the addition of 25 μl of NADPH. Then fluorescence of substrate metabolite was read in a SAFIRE instrument (from Tecan) for 5 min: • FCA (2C9): Excitation at 410 nm and Emission at 510 nm • ER (1A2): Excitation at 530 nm and Emission at 590 nm • MMC (2D6): Excitation at 410 nm and Emission at 485 nm • BMC (2C19): Excitation at 410 nm and Emission at 465 nm • 7BQ (3A4H): Excitation at 410 nm and Emission at 530 nm • DEF (3A4L): Excitation at 485 nm and Emission at 530 nm Plotting of inhibition of substrate production against compound concentration allowed the determination of IC50 values.

[7] = target: T4, CYP2C19 (Homo sapiens, UniProt P33261); assay: Cytochrome p450 inhibition assay (bactosomes, fluorogenic substrate BMC); assay type: biochemical; conditions: recombinant human CYP (Cypex bactosomes)
T4 construct: purchased Cypex; host or cells: bactosomes (bacterial membranes)
Experimental: as §1

[8] = target: T5, CYP1A2 (Homo sapiens, UniProt P05177); assay: Cytochrome p450 inhibition assay (bactosomes, fluorogenic substrate ER); assay type: biochemical; conditions: recombinant human CYP (Cypex bactosomes)
T5 construct: purchased Cypex; host or cells: bactosomes (bacterial membranes)
T5 sequence (P05177 1-516): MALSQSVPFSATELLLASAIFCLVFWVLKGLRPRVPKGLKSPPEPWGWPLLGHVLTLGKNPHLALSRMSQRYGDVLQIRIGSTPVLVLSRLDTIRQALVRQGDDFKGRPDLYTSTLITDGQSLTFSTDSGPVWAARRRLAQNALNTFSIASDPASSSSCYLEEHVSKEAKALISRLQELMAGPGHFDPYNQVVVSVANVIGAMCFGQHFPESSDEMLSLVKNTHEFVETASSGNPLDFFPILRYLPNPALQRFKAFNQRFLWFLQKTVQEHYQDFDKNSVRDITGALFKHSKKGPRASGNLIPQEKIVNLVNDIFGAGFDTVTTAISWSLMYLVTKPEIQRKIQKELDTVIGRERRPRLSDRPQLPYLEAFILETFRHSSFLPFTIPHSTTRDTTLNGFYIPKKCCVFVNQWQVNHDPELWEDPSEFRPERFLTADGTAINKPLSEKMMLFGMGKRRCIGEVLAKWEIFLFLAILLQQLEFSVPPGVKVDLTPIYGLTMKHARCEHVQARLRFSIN
Experimental: as §1

[9] = Solubility in aqueous media; assay type: physicochemical; conditions: for solubility at 4 h: thermodynamic from solid, read-out: Solubility at 4 hour timepoint
Experimental: A known quantity of the compound of Formula (I) was weighed into a suitable vessel (e.g. a screw capped clear glass vial) and a known volume of the required media added (e.g. Simulated Gastric Fluid pH 1.6[SGF], Simulated Fed State Intestinal Fluid pH 6.5 [FeSSIF], Simulated Fasted State Intestinal Fluid pH 6.5 [FaSSIF], Water [Purified Water], or Britton-Robinson buffer). The compound was wetted with the media by vortex mixing for 30 seconds to 1 minute. The sample was then visually observed to ensure that undissolved solid remained present. The sample was transferred to a gentle mixer (such as a roller mixer) and allowed to agitate until the desired time point was reached. At appropriate times the sample was reassessed visually. If all the solid had dissolved the solubility was recorded as >x mg/ml where x is the known weight used divided by the volume added. If undissolved solid remained a portion of the sample was taken and centrifuged to remove the solid leaving a clear supernatant. The supernatant was diluted volumetrically with a suitable diluent to provide an analytical sample of suitable concentration for analysis. This diluted sample was then analysed by a suitable method such as HPLC against a standard(s) of known concentration. The solubility of the compound can then be calculated using a knowledge of the concentration of the standard, the relative response (e.g. peak areas) of the standard and the analytical sample described, and the dilution of the analytical sample.

[10] = substrate 7BQ, read-out: IC50 CYP3A4 (7BQ)
[11] = substrate DEF, read-out: IC50 CYP3A4 (DEF)

T3 sequence (P08684 whole entry): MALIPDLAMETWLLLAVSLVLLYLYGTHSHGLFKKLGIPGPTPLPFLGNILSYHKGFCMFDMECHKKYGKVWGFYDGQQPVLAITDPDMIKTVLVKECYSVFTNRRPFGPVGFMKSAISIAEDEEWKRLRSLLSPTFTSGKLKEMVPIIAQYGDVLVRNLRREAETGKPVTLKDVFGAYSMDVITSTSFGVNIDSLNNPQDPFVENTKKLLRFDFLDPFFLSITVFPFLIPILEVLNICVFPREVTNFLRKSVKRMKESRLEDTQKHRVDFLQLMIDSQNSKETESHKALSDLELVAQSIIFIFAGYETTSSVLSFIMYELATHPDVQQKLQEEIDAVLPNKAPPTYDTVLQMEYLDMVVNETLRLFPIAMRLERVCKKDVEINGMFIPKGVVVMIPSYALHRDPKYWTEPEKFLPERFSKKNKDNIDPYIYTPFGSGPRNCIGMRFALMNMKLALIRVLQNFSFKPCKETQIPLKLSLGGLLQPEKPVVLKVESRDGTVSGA
T2 sequence (P11712 whole entry): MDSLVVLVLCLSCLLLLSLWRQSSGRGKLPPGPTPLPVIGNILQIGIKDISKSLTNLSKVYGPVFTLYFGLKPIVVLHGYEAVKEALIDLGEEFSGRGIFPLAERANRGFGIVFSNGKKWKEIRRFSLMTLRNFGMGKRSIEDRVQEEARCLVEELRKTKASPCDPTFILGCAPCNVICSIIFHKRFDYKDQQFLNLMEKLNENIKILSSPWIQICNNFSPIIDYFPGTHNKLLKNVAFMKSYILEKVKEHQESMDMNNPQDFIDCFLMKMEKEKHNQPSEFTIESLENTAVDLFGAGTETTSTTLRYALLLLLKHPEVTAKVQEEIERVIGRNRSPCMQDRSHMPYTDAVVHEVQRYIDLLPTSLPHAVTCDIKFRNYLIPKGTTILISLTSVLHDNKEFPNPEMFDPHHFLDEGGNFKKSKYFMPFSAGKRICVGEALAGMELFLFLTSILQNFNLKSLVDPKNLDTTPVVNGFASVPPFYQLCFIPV
T1 sequence (P10635 whole entry): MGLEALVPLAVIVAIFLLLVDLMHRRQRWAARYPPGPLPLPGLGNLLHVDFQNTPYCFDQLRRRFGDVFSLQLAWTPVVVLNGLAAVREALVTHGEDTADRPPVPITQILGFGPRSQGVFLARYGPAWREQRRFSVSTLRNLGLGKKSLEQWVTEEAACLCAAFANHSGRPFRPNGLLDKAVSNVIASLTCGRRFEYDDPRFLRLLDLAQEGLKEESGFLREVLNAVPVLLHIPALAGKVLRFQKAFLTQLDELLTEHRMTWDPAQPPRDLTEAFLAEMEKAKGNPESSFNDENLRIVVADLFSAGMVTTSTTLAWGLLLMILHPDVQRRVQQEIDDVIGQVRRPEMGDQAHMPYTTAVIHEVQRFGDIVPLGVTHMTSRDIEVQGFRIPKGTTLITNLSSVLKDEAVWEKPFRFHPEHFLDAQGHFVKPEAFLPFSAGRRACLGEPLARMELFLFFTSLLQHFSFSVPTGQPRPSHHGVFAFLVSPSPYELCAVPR
T4 sequence (P33261 whole entry): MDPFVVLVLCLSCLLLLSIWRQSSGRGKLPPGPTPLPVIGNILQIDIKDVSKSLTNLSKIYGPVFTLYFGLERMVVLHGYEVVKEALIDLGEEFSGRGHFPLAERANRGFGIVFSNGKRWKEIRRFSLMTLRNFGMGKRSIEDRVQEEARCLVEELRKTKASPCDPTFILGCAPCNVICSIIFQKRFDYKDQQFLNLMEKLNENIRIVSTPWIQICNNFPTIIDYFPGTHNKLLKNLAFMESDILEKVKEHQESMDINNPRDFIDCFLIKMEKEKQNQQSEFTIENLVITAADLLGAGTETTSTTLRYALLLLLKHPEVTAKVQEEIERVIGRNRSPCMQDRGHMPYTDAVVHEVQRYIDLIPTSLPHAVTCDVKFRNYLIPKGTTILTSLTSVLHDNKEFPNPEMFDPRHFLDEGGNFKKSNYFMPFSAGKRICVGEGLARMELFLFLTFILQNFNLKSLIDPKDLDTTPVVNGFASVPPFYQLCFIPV

Row | Structure (SMILES) | Compound hydrolysed after 24 h [1] | IC50 [2] [µM] | Rate of hydrolysis in human intestinal microsomes [3] | IC50 [4] [µM] | Rate of hydrolysis to CPHPC in human liver microsomes [5] | IC50 [6, 10] [µM] | IC50 [6, 11] [µM] | IC50 [7] [µM] | IC50 [8] [µM] | Solubility in biologically relevant media ([9]; biologically relevant media) | solubility at 4 h ([9]; FaSSIF (Simulated Fasted State Intestinal Fluid pH 6.5)) [µg/mL] | solubility at 4 h ([9]; FeSSIF (Simulated Fed State Intestinal Fluid pH 6.5)) [µg/mL] | solubility at 4 h ([9]; SGF (Simulated Gastric Fluid pH 1.6)) [µg/mL] | solubility at 4 h ([9]; water (purified water), Water) [µg/mL]
1 | O=C(OCOC(=O)[C@H]1CCCN1C(=O)CCCCC(=O)N1CCC[C@@H]1C(=O)OCOC(=O)OC1CCOCC1)OC1CCOCC1 [Compound of Formula (I), (2R,2′R)-Bis(((((tetrahydro-2H-pyran-4-yl)oxy)carbonyl)oxy)methyl) 1,1′-adipoylbis(pyrrolidine-2-carboxylate)] | Less than 20% | > 33 | low rate of hydrolysis | > 33 | high rate of hydrolysis | > 33 | > 33 | > 33 | > 33 | highly soluble | 4400 | 5000 | 5200 | 5500
2 | O=C(OCOC(=O)[C@H]1CCCN1C(=O)CCCCC(=O)N1CCC[C@@H]1C(=O)O)OC1CCOCC1 [mono-ester derivative, (R)-1-(6-oxo-6-((R)-2-((((((tetrahydro-2H-pyran-4-yl)oxy)carbonyl)oxy)methoxy)carbonyl)pyrrolidin-1-yl)hexanoyl)pyrrolidine-2-carboxylic acid] | – | > 33 | – | > 33 | – | > 33 | > 33 | > 33 | > 33 | – | – | – | – | –
